What was measured:
Mus musculus [1] = experiment: Antidiabetic activity against high fat diet-STZ-induced diabetic Swiss albino mouse model assessed as reduction in blood glucose level at 0.2 mmol/Kg/day, po administered for 14 days relative to glimepiride; type: functional; design: scale not given: the % may be the effect or the level left; conditions: time 14 day
Mus musculus [2] = experiment: Antidiabetic activity against high fat diet-STZ-induced diabetic Swiss albino mouse model assessed as reduction in blood glucose level at 0.2 mmol/Kg/day, po administered for 14 days relative to control; type: functional; design: scale not given: the % may be the effect or the level left; conditions: time 14 day
[3] = Acute toxicity in Swiss albino mouse assessed as effect on motor alterations up to 2000 mg/kg, po administered for 14 days; type: organism-based; conditions: in vivo, 336 h, time 14 day
[4] = Toxicity in high fat diet-STZ-induced diabetic Swiss albino mouse model assessed as changes in body weight at 0.2 mmol/Kg/day, po administered for 14 days (reference value: 26.6 to 27.8 g); type: organism-based; conditions: in vivo, 336 h, time 14 day
[5] = Acute toxicity in Swiss albino mouse assessed as toxic symptoms up to 2000 mg/kg, po administered for 14 days; type: organism-based; conditions: in vivo, 336 h, time 14 day
Mus musculus [6] = experiment: Antidiabetic activity against high fat diet-STZ-induced diabetic Swiss albino mouse model assessed as reduction in blood glucose level at 0.2 mmol/Kg/day, po administered for 14 days; type: functional; conditions: time 14 day
[7] = Acute toxicity in Swiss albino mouse assessed as effect on mortality up to 2000 mg/kg, po administered for 14 days; type: organism-based; conditions: in vivo, 336 h, time 14 day
[8] = Acute toxicity in Swiss albino mouse assessed as effect on behavioural change up to 2000 mg/kg, po administered for 14 days; type: organism-based; conditions: in vivo, 336 h, time 14 day

SMILES | Activity (Mus musculus [1]) [%] | Activity (Mus musculus [2]) [%] | Activity [3] | Activity [4] [g] | Activity [5] | Activity (Mus musculus [6]) [mg/dL] | Activity [7] | Activity [8]
CCOC(=O)C1=C(C)NC(C)=C(C(=O)OCc2ccccc2)C1c1cccc2c1OCO2 (stereo not given) | 132 | 44.22 | Non-Toxic | 27.2 | Non-Toxic | 166.34 | Non-Toxic | Non-Toxic
CCOC(=O)C1=C(C)NC(C)=C(C(=O)OCCOC)C1c1cccc2c1OCO2 (stereo not given) | 134 | 44.89 | Non-Toxic | 27.2 | Non-Toxic | 164.33 | Non-Toxic | Non-Toxic
COC(=O)C1=C(C)NC(C)=C(C(=O)OCc2ccccc2)C1c1cccc2c1OCO2 (stereo not given) | 130 | 43.55 | Non-Toxic | 27.4 | Non-Toxic | 168.33 | Non-Toxic | Non-Toxic
COC(=O)C1=C(C)NC(C)=C(C(=O)OC)C1c1ccc2c(c1)Cc1ccccc1-2 | 1 | 0.41 | Non-Toxic | 29.2 | Non-Toxic | 296.98 | Non-Toxic | Non-Toxic
CC1=C(C(=O)OC(C)C)C(c2cccc3c2OCO3)C(C(=O)OC(C)C)=C(C)N1 | 30 | 10.05 | Non-Toxic | 28.9 | Non-Toxic | 268.23 | Non-Toxic | Non-Toxic
CCOC(=O)C1=C(C)NC(C)=C(C(=O)OC(C)C)C1c1cccc2c1OCO2 (stereo not given) | <1 | 0.27 | Non-Toxic | 28.9 | Non-Toxic | 297.39 | Non-Toxic | Non-Toxic
CC1=C(C(=O)OCc2ccccc2)C(c2cccc3c2OCO3)C(C(=O)OCc2ccccc2)=C(C)N1 | 129 | 43.66 | Non-Toxic | 27.3 | Non-Toxic | 169.4 | Non-Toxic | Non-Toxic
CCOC(=O)C1=C(C)NC(C)=C(C(=O)OC(C)C)C1c1ccc2c(c1)OCO2 (stereo not given) | <1 | 0.11 | Non-Toxic | 29.2 | Non-Toxic | 297.87 | Non-Toxic | Non-Toxic
CC1=C(C(=O)OCc2ccccc2)C(c2ccc3c(c2)OCO3)C(C(=O)OCc2ccccc2)=C(C)N1 | 113 | 37.86 | – | 27 | – | 185.3 | – | –
COCCOC(=O)C1=C(C)NC(C)=C(C(=O)OC)C1c1ccc2c(c1)OCO2 (stereo not given) | 38 | 12.73 | Non-Toxic | 28.6 | Non-Toxic | 260.24 | Non-Toxic | Non-Toxic
CC1=C(C(=O)OC(C)(C)C)C(c2ccc3c(c2)OCO3)C(C(=O)OC(C)(C)C)=C(C)N1 | <1 | 0.61 | – | 26.9 | – | 296.38 | – | –
CCOC(=O)C1=C(C)NC(C)=C(C(=O)OC)C1c1cccc2c1OCO2 (stereo not given) [OXODIPINE] | 190 | 63.65 | Non-Toxic | 27.2 | Non-Toxic | 108.4 | Non-Toxic | Non-Toxic
COC(=O)C1=C(C)NC(C)=C(C(=O)OCc2ccccc2)C1c1ccc2c(c1)OCO2 (stereo not given) | 128 | 42.88 | Non-Toxic | 27.4 | Non-Toxic | 170.33 | Non-Toxic | Non-Toxic
CCOC(=O)C1=C(C)NC(C)=C(C(=O)OCCOC)C1c1ccc2c(c1)OCO2 (stereo not given) | 131 | 43.89 | Non-Toxic | 27.2 | Non-Toxic | 167.32 | Non-Toxic | Non-Toxic
CCOC(=O)C1=C(C)NC(C)=C(C(=O)OCc2ccccc2)C1c1ccc2c(c1)OCO2 (stereo not given) | 129 | 43.21 | Non-Toxic | 27.3 | Non-Toxic | 169.35 | Non-Toxic | Non-Toxic
COC(=O)C1=C(C)NC(C)=C(C(=O)OC)C1c1cccc2c1OCO2 | 184 | 61.63 | Non-Toxic | 26.6 | Non-Toxic | 114.42 | Non-Toxic | Non-Toxic
CCOC(=O)C1=C(C)NC(C)=C(C(=O)OCC)C1c1ccc2c(c1)OCCO2 | 148 | 49.58 | Non-Toxic | 26.8 | Non-Toxic | 150.35 | Non-Toxic | Non-Toxic
COC(=O)C1=C(C)NC(C)=C(C(=O)OC(C)(C)C)C1c1ccc2c(c1)OCO2 (stereo not given) | <1 | 0.39 | Non-Toxic | 29.1 | Non-Toxic | 297.04 | Non-Toxic | Non-Toxic
COCCOC(=O)C1=C(C)NC(C)=C(C(=O)OC)C1c1cccc2c1OCO2 (stereo not given) | 40 | 13.4 | Non-Toxic | 28.3 | Non-Toxic | 258.24 | Non-Toxic | Non-Toxic
COC(=O)C1=C(C)NC(C)=C(C(=O)OC(C)(C)C)C1c1cccc2c1OCO2 (stereo not given) | <1 | 0.29 | Non-Toxic | 28.7 | Non-Toxic | 297.34 | Non-Toxic | Non-Toxic
COC(=O)C1=C(C)NC(C)=C(C(=O)OC)C1c1ccc2c(c1)OCCO2 | 145 | 48.62 | Non-Toxic | 27.3 | Non-Toxic | 153.21 | Non-Toxic | Non-Toxic
CC1=C(C(=O)OC(C)(C)C)C(c2cccc3c2OCO3)C(C(=O)OC(C)(C)C)=C(C)N1 | <1 | 0.69 | Non-Toxic | 29.3 | Non-Toxic | 296.14 | Non-Toxic | Non-Toxic
CCOC(=O)C1=C(C)NC(C)=C(C(=O)OCC)C1c1ccc2c(c1)Cc1ccccc1-2 | 1 | 0.42 | Non-Toxic | 29.3 | Non-Toxic | 296.94 | Non-Toxic | Non-Toxic
COC(=O)C1=C(C)NC(C)=C(C(=O)OC(C)C)C1c1cccc2c1OCO2 (stereo not given) | 60 | 20.11 | Non-Toxic | 28.9 | Non-Toxic | 238.23 | Non-Toxic | Non-Toxic
COC(=O)C1=C(C)NC(C)=C(C(=O)OC(C)C)C1c1ccc2c(c1)OCO2 (stereo not given) | 54 | 18.09 | Non-Toxic | 28.3 | Non-Toxic | 244.26 | Non-Toxic | Non-Toxic
COCCOC(=O)C1=C(C)NC(C)=C(C(=O)OCCOC)C1c1ccc2c(c1)OCO2 | 90 | 30.11 | – | 27.4 | – | 208.41 | – | –
CCOC(=O)C1=C(C)NC(C)=C(C(=O)OC)C1c1ccc2c(c1)OCCO2 (stereo not given) | 151 | 50.49 | Non-Toxic | 27.5 | Non-Toxic | 147.34 | Non-Toxic | Non-Toxic
CCOC(=O)C1=C(C)NC(C)=C(C(=O)OC)C1c1ccc2c(c1)OCO2 (stereo not given) | 160 | 53.6 | Non-Toxic | 27.4 | Non-Toxic | 138.36 | Non-Toxic | Non-Toxic
CC1=C(C(=O)OC(C)C)C(c2ccc3c(c2)OCCO3)C(C(=O)OC(C)C)=C(C)N1 | 1 | 0.34 | Non-Toxic | 28.8 | Non-Toxic | 297.19 | Non-Toxic | Non-Toxic

Source: ChEMBL document CHEMBL5316297, “Mechanistic Insight of Synthesized 1,4-Dihydropyridines as an Antidiabetic Sword against Reactive Oxygen Species” (J Med Chem, 2023)
